In ChEMBL document CHEMBL4411258, “Novel natural compounds from endophytic fungi with anticancer activity” (Eur J Med Chem, 2018):
≈ marks a conversion by molar mass, not a printed value.

Experiments:
HeLa = assay: Cytotoxicity against human HeLa cells by MTS assay; assay type: functional, cell-based
MCF7 [1] = assay: Cytotoxicity against human MCF7 cells by MTS assay; assay type: functional, cell-based
[2] = Cytotoxicity against mouse LM3 cells by MTS assay; assay type: functional, cell-based
A549 [3] = assay: Cytotoxicity against human A549 cells by MTS assay; assay type: functional, cell-based
L02 = assay: Cytotoxicity against human L02 cells by MTS assay; assay type: cell-based
Huh-7 = assay: Cytotoxicity against human HuH7 cells by MTS assay; assay type: functional, cell-based
NCI-H446 = assay: Cytotoxicity against human NCI-H446 cells by MTS assay; assay type: functional, cell-based
SW1990 = assay: Cytotoxicity against human SW1990 cells by MTS assay; assay type: functional, cell-based
HL-60 = assay: Cytotoxicity against human HL60 cells by trypan blue staining based assay; assay type: functional, cell-based
[4] = Inhibition of RANKL-induced NFkappaB (unknown origin) activation expressed in mouse RAW264.7 cells preincubated for 1 hr followed by RANKL stimulation and measured after 6 hrs by luciferase reporter gene based assay; assay type: cell-based
NCI-H187 = assay: Cytotoxicity against human NCI-H187 cells by resazurin microplate assay; assay type: functional, cell-based
Vero = assay: Cytotoxicity against African green monkey Vero cells by resazurin microplate assay; assay type: cell-based; conditions: Chlorocebus sabaeus
BT-549 = assay: Cytotoxicity against human BT549 cells after 48 hrs by neutral red dye based assay; assay type: functional, cell-based; conditions: BT-549, 48 h
SK-OV-3 = assay: Cytotoxicity against human SKOV3 cells after 48 hrs by neutral red dye based assay; assay type: functional, cell-based; conditions: SK-OV-3, 48 h
PC-3 = assay: Cytotoxicity against human PC3 cells by MTT assay; assay type: functional, cell-based
A549 [5] = assay: Cytotoxicity against human A549 cells by MTT assay; assay type: functional, cell-based
SH-SY5Y = assay: Cytotoxicity against human SH-SY5Y cells by MTT assay; assay type: functional, cell-based
MCF7 [6] = assay: Cytotoxicity against human MCF7 cells by MTT assay; assay type: functional, cell-based
HepG2 = assay: Cytotoxicity against human HepG2 cells by MTT assay; assay type: functional, cell-based

O=C1CC[C@@H](c2ccc(O)c3c2C(=O)CCC3=O)c2cccc(O)c21
IC50 (HeLa): 1 to 20 µM | IC50 (MCF7 [1]): 1 to 20 µM | IC50 [2]: 1 to 20 µM | IC50 (A549 [3]): 1 to 20 µM | IC50 (L02): 1 to 20 µM | IC50 (Huh-7): 1 to 20 µM | IC50 (NCI-H446): 1 to 20 µM | IC50 (SW1990): 1 to 20 µM

O=C1CC[C@]2(C[C@@H](O)C(=O)O2)c2cccc(O)c21
IC50 (HL-60): 29.1 µM

O=C1C[C@@H](O)[C@]2(Oc3cccc4c(O)ccc(c34)O2)c2c(O)ccc(O)c21
IC50 (HL-60): 2.39 µM

COC(=O)c1cc(OC)cc2c1C(=O)[C@@H]([C@@H](O)CC(C)=O)CO2
IC50 [4]: 30 to 46 µM

CC(C)=CCCC(C)(O)[C@H]1CC[C@@]2(C)OC3=C(C[C@@H]12)C(=O)[C@@H](O)CC3 (stereo partly specified)
IC50 (HL-60): 32.5 µM

COC(=O)c1cc(O)cc2oc3c(c(=O)c12)[C@@H](OC)O[C@H](C)C3
IC50 [4]: 30 to 46 µM

C=C(CO)C(=O)CCC(C)C1=CC[C@@]2(C)OC3=C(C[C@@H]12)C(=O)[C@@H](O)CC3 (stereo partly specified)
IC50 (HL-60): 4.81 µM

O=C1CC[C@@H](c2ccc(O)c3c2C(=O)CC[C@H]3O)c2cccc(O)c21
IC50 (HeLa): 1 to 20 µM | IC50 (MCF7 [1]): 1 to 20 µM | IC50 [2]: 1 to 20 µM | IC50 (A549 [3]): 1 to 20 µM | IC50 (L02): 1 to 20 µM | IC50 (Huh-7): 1 to 20 µM | IC50 (NCI-H446): 1 to 20 µM | IC50 (SW1990): 1 to 20 µM

CO[C@@H]1CCC(=O)c2c([C@@H]3CCC(=O)c4c(O)cccc43)ccc(O)c21
IC50 (HeLa): 1 to 20 µM | IC50 (MCF7 [1]): 1 to 20 µM | IC50 [2]: 1 to 20 µM | IC50 (A549 [3]): 1 to 20 µM | IC50 (L02): 1 to 20 µM | IC50 (Huh-7): 1 to 20 µM | IC50 (NCI-H446): 1 to 20 µM | IC50 (SW1990): 1 to 20 µM

COC(=O)c1cc(OC)c(O)c2oc3c(c(=O)c12)[C@H](OC)O[C@@H](C)C3
IC50 [4]: 30 to 46 µM

C/C=C/C(O)[C@@H]1OC(=O)[C@@]2(C)[C@@H]3CC[C@@H](C)C[C@H]3C=C[C@@H]12 (stereo partly specified)
IC50 (NCI-H187): 30.5 µg/mL (≈ 105 µM) | IC50 (Vero): 24.2 µg/mL (≈ 83.5 µM)

COC(=O)c1cc(OC)cc2c1C(=O)[C@H]([C@@H](O)CC(C)=O)CO2
IC50 [4]: 30 to 46 µM

C[C@@H](N)C(=O)Nc1ccccc1C(=O)N[C@@H](O)CCS
IC50 (BT-549): 0.4 µM | IC50 (SK-OV-3): 0.8 µM

CC(C)=CC/C=C(/C)[C@H]1CC[C@@]2(C)OC3=C(C[C@@H]12)C(=O)CC[C@@H]3O
IC50 (HL-60): 30.6 µM

O=C1CC[C@@H](c2ccc(O)c3c2[C@@H](O)CCC3=O)c2cccc(O)c21
IC50 (HeLa): 1 to 20 µM | IC50 (MCF7 [1]): 1 to 20 µM | IC50 [2]: 1 to 20 µM | IC50 (A549 [3]): 1 to 20 µM | IC50 (L02): 1 to 20 µM | IC50 (Huh-7): 1 to 20 µM | IC50 (NCI-H446): 1 to 20 µM | IC50 (SW1990): 1 to 20 µM

C=C(CC[C@@H](C)[C@H]1CC=C2C3=C([C@@H](O)[C@H](OC(C)=O)[C@@]21C)[C@@]1(C)C[C@@H](O)[C@H](OC(C)=O)C(C)(C)[C@@H]1CC3)C(C)C
IC50 (BT-549): 1.97 µg/mL | IC50 (SK-OV-3): 0.16 µg/mL

C=C(CC[C@@H](C)[C@H]1CC=C2C3=C([C@@H](O)[C@H](OC(C)=O)[C@@]21C)[C@@]1(C)C[C@@H](O)[C@H](OC(=O)CCCCCCCCCO)C(C)(C)[C@@H]1CC3)C(C)C
IC50 (BT-549): 1.76 µg/mL | IC50 (SK-OV-3): 0.12 µg/mL

CO[C@H]1CCC(=O)c2c([C@@H]3CCC(=O)c4c(O)cccc43)ccc(O)c21
IC50 (HeLa): 1 to 20 µM | IC50 (MCF7 [1]): 1 to 20 µM | IC50 [2]: 1 to 20 µM | IC50 (A549 [3]): 1 to 20 µM | IC50 (L02): 1 to 20 µM | IC50 (Huh-7): 1 to 20 µM | IC50 (NCI-H446): 1 to 20 µM | IC50 (SW1990): 1 to 20 µM

COC(=O)[C@@H]1c2c(oc3cc(C)cc(OC)c3c2=O)C=C[C@H]1O
IC50 (PC-3): 6.9 µM | IC50 (A549 [5]): 8.2 µM | IC50 (SH-SY5Y): 7.8 µM | IC50 (MCF7 [6]): 8.4 µM

CC(C)CCC[C@@H](C)[C@H]1CC[C@H]2[C@@H]3CC[C@H]4C[C@@H](O[C@@H]5O[C@H](CO)[C@@H](O)[C@H](O)[C@H]5O)CC[C@]4(C)[C@H]3CC[C@]12C
IC50 (PC-3): 6.1 µM | IC50 (L02): 4.7 µM | IC50 (HepG2): 5.5 µM

C[C@@H]1CC[C@@H]2[C@H](C=C[C@H]3[C@H](/C=C/[C@H](C)O)OC(=O)[C@@]23C)C1
IC50 (NCI-H187): 17.8 µg/mL (≈ 61.2 µM) | IC50 (Vero): 31.5 µg/mL (≈ 108 µM)
